# Experimental data taken from ChEMBL document CHEMBL1129317, “Novel selective and partial agonists of 5-HT3 receptors. Part 1. Synthesis and biological evaluation of piperazinopyrrolothienopyrazines” (J Med Chem, 1996).
# pEC50, pIC50: −log10 of the molar value.
# Legend:
# [1] = target: T1, Serotonin 3 (5-HT3) receptor (Rattus norvegicus) (UniProt P35563+Q9JJ16); experiment: Agonistic activity of compound towards 5-hydroxytryptamine 3 receptor in Von Bezold-Jarisch Reflex in rats at 100 (ug/kg), evaluated as change in heart rate; format: functional
# [2] = target: 5-hydroxytryptamine receptor 2A (Bos taurus, UniProt Q75Z89); experiment: Binding affinity towards 5-hydroxytryptamine 2A receptor
# [3] = target: T2, 5-hydroxytryptamine receptor 1A (Homo sapiens, UniProt P08908); experiment: Binding affinity for 5-hydroxytryptamine 1A receptor
# T2 sequence (P08908 whole entry): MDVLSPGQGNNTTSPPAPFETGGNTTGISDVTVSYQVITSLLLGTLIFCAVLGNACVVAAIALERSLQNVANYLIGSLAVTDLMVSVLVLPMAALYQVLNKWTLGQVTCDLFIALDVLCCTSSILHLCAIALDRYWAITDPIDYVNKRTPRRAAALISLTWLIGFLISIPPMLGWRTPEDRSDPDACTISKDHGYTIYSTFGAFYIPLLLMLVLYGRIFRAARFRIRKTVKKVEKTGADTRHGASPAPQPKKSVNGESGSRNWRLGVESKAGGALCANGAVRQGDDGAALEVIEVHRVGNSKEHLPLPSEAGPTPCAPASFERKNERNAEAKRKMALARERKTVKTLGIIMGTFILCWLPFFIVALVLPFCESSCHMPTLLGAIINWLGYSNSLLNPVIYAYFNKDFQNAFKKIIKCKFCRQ
# [4] = target: T1, Serotonin 3 (5-HT3) receptor (Rattus norvegicus); experiment: Antagonistic activity of compound towards 5-hydroxytryptamine 3 receptor in Von Bezold-Jarisch Reflex in rats at 60 (ug/kg), evaluated as percent inhibition of bradycardia; format: functional
# [5] = target: T3, Serotonin 3 (5-HT3) receptor (Rattus norvegicus, UniProt P35563+Q9JJ16); experiment: Binding affinity towards 5-hydroxytryptamine 3 receptor; format: protein-complex assay
# T3 sequence (P35563 whole entry): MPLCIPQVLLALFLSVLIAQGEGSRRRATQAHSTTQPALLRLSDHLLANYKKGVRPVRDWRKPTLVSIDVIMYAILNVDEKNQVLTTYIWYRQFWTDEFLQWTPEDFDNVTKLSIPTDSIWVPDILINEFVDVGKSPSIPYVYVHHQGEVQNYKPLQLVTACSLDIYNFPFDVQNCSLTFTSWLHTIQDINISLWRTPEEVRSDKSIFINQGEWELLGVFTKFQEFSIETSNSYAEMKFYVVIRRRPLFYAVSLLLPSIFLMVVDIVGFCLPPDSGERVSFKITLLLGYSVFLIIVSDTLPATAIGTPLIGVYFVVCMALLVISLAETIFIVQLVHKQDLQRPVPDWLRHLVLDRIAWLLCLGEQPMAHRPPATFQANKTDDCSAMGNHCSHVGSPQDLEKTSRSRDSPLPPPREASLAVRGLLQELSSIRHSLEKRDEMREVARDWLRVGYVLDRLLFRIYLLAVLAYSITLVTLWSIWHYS
# T3 sequence (Q9JJ16 whole entry): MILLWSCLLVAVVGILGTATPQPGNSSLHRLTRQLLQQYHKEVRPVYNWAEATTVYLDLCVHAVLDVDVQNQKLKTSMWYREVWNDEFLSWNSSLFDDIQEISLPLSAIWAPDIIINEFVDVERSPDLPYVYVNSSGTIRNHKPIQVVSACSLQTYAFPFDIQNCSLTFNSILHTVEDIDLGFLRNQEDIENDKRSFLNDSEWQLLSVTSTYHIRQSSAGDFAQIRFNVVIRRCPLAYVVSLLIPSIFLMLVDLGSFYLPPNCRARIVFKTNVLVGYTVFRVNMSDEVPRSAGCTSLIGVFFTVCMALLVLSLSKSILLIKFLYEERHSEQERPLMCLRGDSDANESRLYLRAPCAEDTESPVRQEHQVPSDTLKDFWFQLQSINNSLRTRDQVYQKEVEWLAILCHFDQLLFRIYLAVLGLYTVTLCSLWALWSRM
# [6] = target: 5-hydroxytryptamine receptor 1B (Rattus norvegicus, UniProt P28564); experiment: Binding affinity for 5-hydroxytryptamine 1B receptor
# [7] = target: 5-hydroxytryptamine receptor 1D (Sus scrofa, UniProt P79400); experiment: Binding affinity for 5-hydroxytryptamine 1D receptor
# [8] = target: T1, Serotonin 3 (5-HT3) receptor (Rattus norvegicus); experiment: Agonistic activity of compound towards 5-hydroxytryptamine 3 receptor in Von Bezold-Jarisch Reflex in rats at 60 (ug/kg), evaluated as change in heart rate; format: functional
# [9] = tested on: NG108-15; experiment: (§1) In vitro effective concentration against [14C]guanidinium uptake into NG 108-15 cells; format: functional, cell-based; conditions: Murinae
# [10] = target: T1, Serotonin 3 (5-HT3) receptor (Rattus norvegicus); experiment: Antagonistic activity of compound towards 5-hydroxytryptamine 3 receptor in Von Bezold-Jarisch Reflex in rats at 100(ug/kg), evaluated as percent inhibition of bradycardia; format: functional
# [11] = target: T4, 5-hydroxytryptamine receptor 2C (Homo sapiens, UniProt P28335); experiment: Binding affinity towards 5-hydroxytryptamine 2C receptor
# T4 sequence (P28335 whole entry): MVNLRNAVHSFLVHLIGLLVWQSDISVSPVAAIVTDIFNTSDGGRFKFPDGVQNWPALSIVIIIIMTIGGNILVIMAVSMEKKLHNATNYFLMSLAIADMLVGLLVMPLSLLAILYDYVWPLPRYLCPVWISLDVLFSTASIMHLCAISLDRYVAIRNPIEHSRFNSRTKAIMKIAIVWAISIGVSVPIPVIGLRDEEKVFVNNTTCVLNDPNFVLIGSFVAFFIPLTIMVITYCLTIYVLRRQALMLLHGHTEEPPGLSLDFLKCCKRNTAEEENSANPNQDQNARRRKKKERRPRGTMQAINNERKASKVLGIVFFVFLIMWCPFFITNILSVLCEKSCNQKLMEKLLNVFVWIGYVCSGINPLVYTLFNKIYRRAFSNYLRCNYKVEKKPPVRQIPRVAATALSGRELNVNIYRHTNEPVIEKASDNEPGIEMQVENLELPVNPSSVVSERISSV
# [12] = target: T1, Serotonin 3 (5-HT3) receptor (Rattus norvegicus); experiment: Agonistic activity of compound towards 5-hydroxytryptamine 3 receptorr in Von Bezold-Jarisch Reflex in rats at 100 (ug/kg), evaluated as change in heart rate; format: functional
# [13] = target: T1, Serotonin 3 (5-HT3) receptor (Rattus norvegicus); experiment: Antagonistic activity of compound towards 5-hydroxytryptamine 3 receptor in Von Bezold-Jarisch reflex in rats at 60(ug/kg), evaluated as percent inhibition of bradycardia; format: functional
# [14] = tested on: NG108-15; experiment: as §1; format: functional; conditions: Murinae, read-out: ED50 (the source's name)
# [15] = target: T1, Serotonin 3 (5-HT3) receptor (Rattus norvegicus); experiment: 5-Hydroxy tryptamine 3 receptor showing agonist activity (in vivo) in Von Bezold-Jarisch Reflex in rats at 120 (ug/kg), evaluated as change in heart rate; format: functional, organism-based
# Sequence of 5-hydroxytryptamine receptor 2A (Q75Z89 whole entry): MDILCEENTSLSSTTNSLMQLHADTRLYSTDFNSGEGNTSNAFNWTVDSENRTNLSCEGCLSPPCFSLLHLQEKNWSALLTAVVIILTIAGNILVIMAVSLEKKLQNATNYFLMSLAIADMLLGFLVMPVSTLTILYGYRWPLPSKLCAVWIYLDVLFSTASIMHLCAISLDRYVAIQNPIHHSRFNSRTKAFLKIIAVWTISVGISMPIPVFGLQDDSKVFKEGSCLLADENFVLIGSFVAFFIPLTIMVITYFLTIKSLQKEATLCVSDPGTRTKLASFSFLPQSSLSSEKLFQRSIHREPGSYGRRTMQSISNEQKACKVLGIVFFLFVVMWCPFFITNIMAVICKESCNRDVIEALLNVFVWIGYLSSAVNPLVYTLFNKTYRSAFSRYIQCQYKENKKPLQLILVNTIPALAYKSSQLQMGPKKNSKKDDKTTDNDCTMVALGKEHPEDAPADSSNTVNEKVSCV
# Sequence of 5-hydroxytryptamine receptor 1D (P79400 whole entry): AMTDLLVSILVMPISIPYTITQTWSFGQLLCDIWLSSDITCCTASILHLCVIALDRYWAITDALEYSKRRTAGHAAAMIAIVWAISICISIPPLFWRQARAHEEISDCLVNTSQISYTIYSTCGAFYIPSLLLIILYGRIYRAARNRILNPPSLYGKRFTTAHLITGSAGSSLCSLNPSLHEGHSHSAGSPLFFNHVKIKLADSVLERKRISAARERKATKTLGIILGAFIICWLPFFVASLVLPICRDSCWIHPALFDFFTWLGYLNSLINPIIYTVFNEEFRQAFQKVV
# Sequence of 5-hydroxytryptamine receptor 1B (P28564 whole entry): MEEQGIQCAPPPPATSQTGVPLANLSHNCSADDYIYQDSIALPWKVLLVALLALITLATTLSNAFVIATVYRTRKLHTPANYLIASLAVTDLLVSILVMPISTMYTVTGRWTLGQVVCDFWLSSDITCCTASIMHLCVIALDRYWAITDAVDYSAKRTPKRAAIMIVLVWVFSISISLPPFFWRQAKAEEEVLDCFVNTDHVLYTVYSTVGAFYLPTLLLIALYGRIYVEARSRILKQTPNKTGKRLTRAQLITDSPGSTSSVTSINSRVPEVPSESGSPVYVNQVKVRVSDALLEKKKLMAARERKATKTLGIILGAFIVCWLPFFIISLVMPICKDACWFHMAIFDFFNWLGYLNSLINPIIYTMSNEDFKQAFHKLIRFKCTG
Structure (SMILES),pIC50 [2],pIC50 [3],Change [4] [%],pIC50 [5],pIC50 [6],pIC50 [7],pEC50 [9],Change [10] [%],pIC50 [11],Change [13] [%],pEC50 [14],Change [1] [%],Change [8] [%],Change [12] [%],Change [15] [%]
c1ccc(CN2CCN(c3nc4sccc4n4cccc34)CC2)cc1,4.71,5.23,–,8.34,4.04,4.03,7.52,67,5.43,–,–,48,–,–,–
c1ccc(CN2CCN(c3nc4cc(-c5ccccc5)sc4n4cccc34)CC2)cc1,3.47,< 4.00,–,3.23,< 4.00,< 4.00,–,–,3.33,–,–,–,–,–,–
Clc1ccc(CN2CCN(c3nc4sccc4n4cccc34)CC2)c(Cl)c1,3.32,4.50,–,5.38,4.20,4.60,–,–,4.72,–,–,–,–,–,–
C[N+]1(Cc2ccccc2)CCN(c2nc3ccsc3n3cccc23)CC1,4.76,5.11,–,6.90,4.39,< 4.00,–,–,4.81,–,–,–,–,–,–
C=CCN1CCN(c2nc3ccsc3n3cccc23)CC1,6.07,6.92,–,8.58,6.24,6.42,–,–,6.77,–,–,–,–,–,–

# More lines, main results first:
pIC50 [2],pIC50 [3],Change [4] [%],pIC50 [5],pIC50 [6],pIC50 [7],pEC50 [9],Change [10] [%],pIC50 [11],Change [13] [%],pEC50 [14],Structure (SMILES),Change [1] [%],Change [8] [%],Change [12] [%],Change [15] [%]
4.42,4.84,34,8.93,2.80,< 4.00,8.30,–,–,–,–,Fc1ccc(CN2CCN(c3nc4sccc4n4cccc34)CC2)cc1,25,0,–,–
5.63,7.17,–,9.04,6.38,6.33,–,–,6.12,67,8.40,C=CCN1CCN(c2nc3sccc3n3cccc23)CC1,–,30,72,–
5.58,7.23,–,7.92,7.86,6.22,7.10,–,7.46,68,–,c1cc2c(N3CCNCC3)nc3ccsc3n2c1,–,35,–,0
4.76,5.87,–,5.64,5.37,4.35,–,–,5.41,–,–,Clc1ccc(CN2CCN(c3nc4ccsc4n4cccc34)CC2)cc1Cl,–,–,–,–
3.82,3.99,–,2.98,3.95,3.89,–,–,< 4.00,–,–,O=C(c1ccc(F)cc1)N1CCN(c2nc3ccsc3n3cccc23)CC1,–,–,–,–
4.96,6.58,–,8.59,5.51,4.44,–,–,6.34,–,–,c1cc2c(N3CCN(Cc4ccc5c(c4)OCO5)CC3)nc3ccsc3n2c1,–,–,–,–
